Laboratory results taken from US7098343B2, “Compound” (Sterix, Limited, priority 2001, dated 2006).

Key:
uterus = conditions: cited from earlier work
steroid sulphatase [1] = biological target: T1, steroid sulphatase (Homo sapiens, UniProt P08842); conditions: cited from earlier work
T1 sequence (P08842 22-583): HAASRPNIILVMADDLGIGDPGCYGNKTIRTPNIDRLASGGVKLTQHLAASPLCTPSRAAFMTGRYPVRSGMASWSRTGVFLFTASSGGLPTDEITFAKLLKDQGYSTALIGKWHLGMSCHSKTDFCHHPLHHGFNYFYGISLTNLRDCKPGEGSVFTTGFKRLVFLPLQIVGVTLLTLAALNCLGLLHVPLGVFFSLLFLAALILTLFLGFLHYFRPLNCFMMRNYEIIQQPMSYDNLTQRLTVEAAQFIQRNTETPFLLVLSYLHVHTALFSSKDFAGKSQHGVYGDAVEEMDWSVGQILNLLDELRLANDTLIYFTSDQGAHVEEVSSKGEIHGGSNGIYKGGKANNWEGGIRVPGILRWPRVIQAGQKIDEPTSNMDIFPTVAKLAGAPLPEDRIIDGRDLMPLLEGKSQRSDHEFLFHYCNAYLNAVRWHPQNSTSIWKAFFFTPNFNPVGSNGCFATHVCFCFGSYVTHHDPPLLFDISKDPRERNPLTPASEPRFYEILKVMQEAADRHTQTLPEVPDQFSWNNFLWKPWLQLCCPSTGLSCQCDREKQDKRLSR

steroid sulphatase [2] = biological target: T1, steroid sulphatase; experiment: Inhibition of steroid sulphatase activity in placental microsomes (Protocol 2); format: biochemical; parameters: host or cells: JEG3 choriocarcinoma cells (intact monolayers); conditions: read-out: SULPHATASE % inhibition at 10 μM in placental microsomes
Experimental: Inhibition of Steroid Sulphatase Activity in Placental Microsomes
Sulphatase-positive human placenta from normal term pregnancies are thoroughly minced with scissors and washed once with cold phosphate buffer (pH 7.4, 50 mM) then re-suspended in cold phosphate buffer (5 ml/g tissue). Homogenisation is accomplished with an Ultra-Turrax homogeniser, using three 10 second bursts separated by 2 minute cooling periods in ice. Nuclei and cell debris are removed by centrifuging (4° C.) at 2000 g for 30 minutes and portions (2 ml) of the supernatant are stored at […] The protein concentration of the supernatants is determined by the method of Bradford (Anal. Biochem., 72, 248-254 (1976)).
Incubations (1 ml) are carried out using a protein concentration of […], substrate concentration of […] [6,7-3H]oestrone-3-sulphate (specific activity 60 Ci/mmol from New England Nuclear, Boston, Mass., U.S.A.) and an incubation time of 20 minutes at 37° C. […] A portion (2 ml) of the organic phase was removed, evaporated and the 3H and 14C content of the residue determined by scintillation spectrometry. The mass of oestrone-3-sulphate hydrolysed is calculated from the 3H counts obtained (corrected for the volumes of the medium and organic phase used, and for recovery of [14C]oestrone added) and the specific activity of the substrate.

aromatase = biological target: T2, aromatase (Homo sapiens, UniProt P11511); experiment: Aromatase activity in JEG3 choriocarcinoma cells (Protocol 6); format: cell-based
T2 construct: Aromatase activity is measured in JEG3 choriocarcinoma cells, obtained from the ATCC; host or cells: JEG3 choriocarcinoma cells (intact monolayers)
T2 sequence (P11511 1-503): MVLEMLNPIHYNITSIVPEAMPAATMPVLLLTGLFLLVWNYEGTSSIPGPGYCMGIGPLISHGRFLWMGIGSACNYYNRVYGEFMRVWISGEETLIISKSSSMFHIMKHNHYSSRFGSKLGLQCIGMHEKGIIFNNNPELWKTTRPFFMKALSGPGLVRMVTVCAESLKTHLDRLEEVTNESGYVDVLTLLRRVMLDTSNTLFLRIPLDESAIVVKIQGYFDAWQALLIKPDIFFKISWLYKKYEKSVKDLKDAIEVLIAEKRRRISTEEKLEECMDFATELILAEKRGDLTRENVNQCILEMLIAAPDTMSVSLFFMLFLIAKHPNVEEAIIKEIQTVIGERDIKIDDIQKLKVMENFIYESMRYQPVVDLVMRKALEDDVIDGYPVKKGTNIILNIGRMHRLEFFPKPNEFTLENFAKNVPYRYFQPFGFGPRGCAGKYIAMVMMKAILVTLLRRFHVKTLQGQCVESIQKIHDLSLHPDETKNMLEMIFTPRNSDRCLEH

E1-STS = biological target: T3, E1-STS (Homo sapiens, UniProt P08842); conditions: 0.1 nM; cited from earlier work
T3 construct: host or cells: intact MCF-7 cells (endogenous enzyme)
T3 sequence (P08842 22-583): T1 sequence (P08842 22-583)

rat liver E1-STS = biological target: T4, rat liver E1-STS (Rattus norvegicus, UniProt P15589); conditions: administered orally or subcutaneously; cited from earlier work
T4 construct: host or cells: rat liver after oral or subcutaneous dosing
T4 sequence (P15589 20-577): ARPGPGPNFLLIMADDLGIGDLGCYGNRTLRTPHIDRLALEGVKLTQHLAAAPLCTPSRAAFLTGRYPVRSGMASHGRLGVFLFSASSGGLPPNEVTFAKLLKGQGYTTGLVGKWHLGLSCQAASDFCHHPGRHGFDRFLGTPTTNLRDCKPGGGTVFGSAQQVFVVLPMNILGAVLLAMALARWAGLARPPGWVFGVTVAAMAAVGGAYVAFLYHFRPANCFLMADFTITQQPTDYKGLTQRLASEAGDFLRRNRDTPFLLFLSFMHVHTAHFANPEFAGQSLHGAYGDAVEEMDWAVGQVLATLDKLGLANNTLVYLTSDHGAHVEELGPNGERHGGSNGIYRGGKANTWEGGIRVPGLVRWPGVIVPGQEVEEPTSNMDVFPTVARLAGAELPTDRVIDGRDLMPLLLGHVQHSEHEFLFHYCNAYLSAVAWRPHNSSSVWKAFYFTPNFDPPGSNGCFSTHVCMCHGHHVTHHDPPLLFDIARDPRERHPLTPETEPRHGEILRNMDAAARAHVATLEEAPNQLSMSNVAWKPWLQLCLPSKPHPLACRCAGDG

rat liver DHA-STS = biological target: T5, rat liver DHA-STS (Rattus norvegicus, UniProt P15589); conditions: administered orally or subcutaneously; cited from earlier work
T5 construct: host or cells: rat liver after oral or subcutaneous dosing
T5 sequence (P15589 20-577): T4 sequence (P15589 20-577)

In the case of `COc1cc2c(cc1OS(N)(=O)=O)CC[C@@H]1[C@@H]2CC[C@]2(C)C(=O)CC[C@@H]12` [2-methoxyoestrone-3-O-sulphamate], the “oestrogenicity, in words” value (uterus; rat, in vivo) is listed as “devoid of oestrogenicity” and the “steroid sulphatase inhibition relative to EMATE, in words” value (steroid sulphatase [1]) is listed as “equipotent with EMATE”.
In the case of `NS(=O)(=O)Oc1ccc(Cn2cncn2)cc1` [STX270, Sulfamic Acid 4-[1,2,4]triazol-1-ylmethylphenyl ester], the inhibition at 10 µM (steroid sulphatase [2]) is reported as 14%.
In the case of oestrone-3-S-sulphamate, the “steroid sulphatase inhibition relative to EMATE, in words” value (steroid sulphatase [1]) is given as “weaker non-time-dependent inactivators”.
For oestrone-3-N-sulphamate, the “steroid sulphatase inhibition relative to EMATE, in words” value (steroid sulphatase [1]) is listed as “weaker non-time-dependent inactivators”.
With `N#Cc1ccc(N(Cc2ccc(O)cc2)n2cnnc2)cc1` [STX265, 4-[(4-Hydroxylbenzyl)-[1,2,4]triazol-4-ylamino]benzonitrile] the melting point was 228 to 230 °C.
In the case of `NS(=O)(=O)Oc1ccc(-c2cc(=O)c3cc(OS(N)(=O)=O)ccc3o2)cc1` [Compound H342F1], the “AROMATASE inhibition, in words” value (aromatase) is reported as “(No inhibition seen)”.
For `CC12CCC3c4ccc(OS(N)(=O)=O)cc4CCC3C1CCC2=O` (centres unmarked) [EMATE, oestrone-3-O-sulphamate], the “inhibition of E1-STS activity in intact MCF-7 cells” value (E1-STS) is given as “more than 99%”, the “inhibition of rat liver E1-STS activity” value (rat liver E1-STS) is given as 99% and the “inhibition of rat liver DHA-STS activity” value (rat liver DHA-STS) is given as 99%. The “oral uterotrophic activity relative to estradiol” value (uterus; rats, oral) was 100 times.
